The results in this text go back to patent US20230043863A1, “HETEROAROMATIC DERIVATIVES FOR USE AS REGULATOR, PREPARATION METHOD THEREFOR AND USE THEREOF” (JIANGSU HANSOH PHARMACEUTICAL GROUP CO., LTD., priority 2018, published 2023).

Each structure is given as a SMILES string. Read-outs that look alike come from different tables or passages of the source.

Data set [1] concerns the target TYK2 (Homo sapiens, UniProt P29597). Briefly: JAK kinase activity inhibition, TR-FRET (TYK2). It is filed as biochemical. As to conditions: TR-FRET kinase assay. A digest of the protocol: (§1)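 Recombinant kinase at 0.1-20 nM, peptide substrate, ATP; room temperature, 0.5-5 h; EDTA stop, labeled-antibody TR-FRET readout; IC50 by curve fit.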
Data set [2] concerns the target JAK1 (Homo sapiens, UniProt P23458). Description: JAK kinase activity inhibition, TR-FRET (JAK1). The settings on record: TR-FRET kinase assay. It is filed as biochemical. A digest of the protocol:
as §1

The test system of data set [3] is JAK-STAT signal pathway of U266 cells. Description: Inhibition of cellular JAK-STAT signal pathway (STAT3 phosphorylation) in U266 cells. Type of data set: cell-based, human. The settings on record: Homo sapiens, U-266, INF-a 1000 U/mL stimulation. A digest of the protocol: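 U266 cells (100-300 K/well) preincubated 2 h at room temperature with serially diluted compound, then stimulated 15 min with IFN-α at 1000 U/mL final. After lysis, STAT3 phosphorylation read by LANCE Ultra TR-FRET (Eu antibody 0.5 nM, ULight antibody 5 nM, overnight) at 665 nm; IC50 from 4-parameter fit of inhibition versus DMSO and negative controls.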

A short description of data set [4]: Balb/C mouse pharmacokinetics (plasma, colon, ileum). Type of data set: in vivo. The settings on record: male, po, Balb/C mice, p.o. 5 mg/kg; for Cmax: read-out: Blood concentration Cmax; for AUC(0-t): read-out: Curve area AUC0-t; for MRT: read-out: Mean detention time MRT; for Tmax: read-out: Time to peak tmax; for AUC(0-inf): read-out: Curve area AUC0-∞; for half-life: read-out: Half life period t1/2 (converted). An excerpt: Balb/C mouse was used as the test animal, the pharmacokinetic behavior in mice (plasma and colon, ileum tissue) was studied after oral administering the embodiment 1, embodiment 60, embodiment 169, embodiment 170, embodiment 171, embodiment 179, embodiment 191, embodiment 213, embodiment 214, embodiment 237, embodiment 238, embodiment 244, embodiment 246, embodiment 247, embodiment 257, embodiment 260, embodiment 262, embodiment 263, embodiment 267, embodiment 277, embodiment 278, embodiment 279, embodiment 288, embodiment 295, embodiment 299 and embodiment 301 at a dose of 5 mg/kg. After analyzing the drug concentration in the colon and ileum, the ratio of the drug concentration in the colon to that in ileum, and the ratio of the drug concentration in the colon to that in the plasma, the compounds with excellent PK were selected for further research.
12 Balb/C mice in each group, male, Shanghai Jiesjie Experimental Animal Co., Ltd., animal production license number (SCXK (Shanghai) 2013-0006 N0.311620400001794).
12 Balb/C mice in each group, male; p.o. after one night fast; the dose was 5 mg/kg; the administration volume was 10 mL/kg.
At 0, 0.5, 1, 2, 3, 5 and 7 hours before and after the administration, the mice were executed by CO2 and 0.2 mL of blood was collected from the heart, placed in an EDTA-K2 test tube, and centrifuged at 6000 rpm at 4° C. for 6 minutes to separate the plasma, which was then stored at −80° C. The ileum was taken close to the cecum end with a length of about 4-5 cm, and the colon was also taken close to the cecum end with a length of about 2-3 cm, weighed and placed in a 2 mL centrifuge tube, then stored at −80° C.
1) 40 uL of plasma sample was precipitated by adding 160 uL of acetonitrile, mixed and centrifuged at 3500×g for 5-20 minutes.
2) 30 μL of plasma and intestinal homogenate sample were precipitated by adding 90 of acetonitrile containing internal standard (100 ng/mL), mixed and centrifuged at 13000 rpm for 8 minutes.
3) 70 μL of the supernatant solution after treatment was collected and 70 μL of water was added thereto, vortexed and mixed for 10 minutes, and then 20 μL was collected to analyze the concentration of the test compound by LC/MS/MS. LC/MS/MS analysis instrument: AB Sciex API 4000 Qtrap.
Liquid phase conditions: Shimadzu LC-20AD Pump
Chromatographic column: Agilent ZORBAX XDB-C18 (50×2.1 mm, 3.5 μm) mobile phase: 0.1% formic acid aqueous solution as A solution, acetonitrile as B solution
Elution time: 0-4.0 minutes, the eluent is as follows:
The main pharmacokinetic parameters were calculated with WinNonlin 6.1, and the results of mouse pharmacokinetic experiments are shown in Table 3:
NA refers to none detected or not being tested (the detection limit of blood concentration was 1 ng/mL, when the Cmax in the blood test is NA, then NA in the blood test index refers to none detected; when the Cmax in the blood test is higher than the quantitative limit 1 ng/mL, then NA in the blood test index refers to not being tested; NA in the tissues (colon and ileum) refers to not being tested).

TYK2, sequence (P29597 whole entry): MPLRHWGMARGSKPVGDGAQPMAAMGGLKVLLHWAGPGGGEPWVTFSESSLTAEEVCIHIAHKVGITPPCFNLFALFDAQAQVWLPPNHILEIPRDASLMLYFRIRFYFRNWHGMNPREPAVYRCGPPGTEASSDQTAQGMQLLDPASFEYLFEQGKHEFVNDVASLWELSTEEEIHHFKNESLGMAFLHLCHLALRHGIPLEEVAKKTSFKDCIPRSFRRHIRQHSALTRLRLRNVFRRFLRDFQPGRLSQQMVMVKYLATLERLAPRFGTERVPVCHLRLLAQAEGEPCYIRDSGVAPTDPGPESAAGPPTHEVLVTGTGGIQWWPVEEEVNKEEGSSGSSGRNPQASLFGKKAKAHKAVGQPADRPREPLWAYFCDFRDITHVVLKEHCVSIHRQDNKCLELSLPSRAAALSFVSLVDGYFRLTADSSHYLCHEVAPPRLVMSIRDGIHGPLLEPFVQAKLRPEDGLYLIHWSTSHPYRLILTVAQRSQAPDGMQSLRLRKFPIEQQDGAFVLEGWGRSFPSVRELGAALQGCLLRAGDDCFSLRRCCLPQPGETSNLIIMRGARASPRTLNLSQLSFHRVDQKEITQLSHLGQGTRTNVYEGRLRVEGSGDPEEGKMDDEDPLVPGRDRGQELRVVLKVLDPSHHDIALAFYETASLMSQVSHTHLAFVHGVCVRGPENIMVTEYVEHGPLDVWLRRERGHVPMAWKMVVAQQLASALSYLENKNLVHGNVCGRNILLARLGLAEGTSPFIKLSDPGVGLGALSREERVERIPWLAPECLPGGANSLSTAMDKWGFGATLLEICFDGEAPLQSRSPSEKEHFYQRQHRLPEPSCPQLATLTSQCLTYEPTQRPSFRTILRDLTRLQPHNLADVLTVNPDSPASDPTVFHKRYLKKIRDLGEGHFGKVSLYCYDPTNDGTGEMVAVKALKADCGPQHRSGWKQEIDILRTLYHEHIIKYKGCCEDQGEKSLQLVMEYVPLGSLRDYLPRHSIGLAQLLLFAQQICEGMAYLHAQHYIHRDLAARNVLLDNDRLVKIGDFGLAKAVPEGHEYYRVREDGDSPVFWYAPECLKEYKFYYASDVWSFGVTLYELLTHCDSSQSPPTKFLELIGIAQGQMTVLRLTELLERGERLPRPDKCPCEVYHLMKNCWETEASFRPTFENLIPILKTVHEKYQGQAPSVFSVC
JAK1, sequence (P23458 whole entry): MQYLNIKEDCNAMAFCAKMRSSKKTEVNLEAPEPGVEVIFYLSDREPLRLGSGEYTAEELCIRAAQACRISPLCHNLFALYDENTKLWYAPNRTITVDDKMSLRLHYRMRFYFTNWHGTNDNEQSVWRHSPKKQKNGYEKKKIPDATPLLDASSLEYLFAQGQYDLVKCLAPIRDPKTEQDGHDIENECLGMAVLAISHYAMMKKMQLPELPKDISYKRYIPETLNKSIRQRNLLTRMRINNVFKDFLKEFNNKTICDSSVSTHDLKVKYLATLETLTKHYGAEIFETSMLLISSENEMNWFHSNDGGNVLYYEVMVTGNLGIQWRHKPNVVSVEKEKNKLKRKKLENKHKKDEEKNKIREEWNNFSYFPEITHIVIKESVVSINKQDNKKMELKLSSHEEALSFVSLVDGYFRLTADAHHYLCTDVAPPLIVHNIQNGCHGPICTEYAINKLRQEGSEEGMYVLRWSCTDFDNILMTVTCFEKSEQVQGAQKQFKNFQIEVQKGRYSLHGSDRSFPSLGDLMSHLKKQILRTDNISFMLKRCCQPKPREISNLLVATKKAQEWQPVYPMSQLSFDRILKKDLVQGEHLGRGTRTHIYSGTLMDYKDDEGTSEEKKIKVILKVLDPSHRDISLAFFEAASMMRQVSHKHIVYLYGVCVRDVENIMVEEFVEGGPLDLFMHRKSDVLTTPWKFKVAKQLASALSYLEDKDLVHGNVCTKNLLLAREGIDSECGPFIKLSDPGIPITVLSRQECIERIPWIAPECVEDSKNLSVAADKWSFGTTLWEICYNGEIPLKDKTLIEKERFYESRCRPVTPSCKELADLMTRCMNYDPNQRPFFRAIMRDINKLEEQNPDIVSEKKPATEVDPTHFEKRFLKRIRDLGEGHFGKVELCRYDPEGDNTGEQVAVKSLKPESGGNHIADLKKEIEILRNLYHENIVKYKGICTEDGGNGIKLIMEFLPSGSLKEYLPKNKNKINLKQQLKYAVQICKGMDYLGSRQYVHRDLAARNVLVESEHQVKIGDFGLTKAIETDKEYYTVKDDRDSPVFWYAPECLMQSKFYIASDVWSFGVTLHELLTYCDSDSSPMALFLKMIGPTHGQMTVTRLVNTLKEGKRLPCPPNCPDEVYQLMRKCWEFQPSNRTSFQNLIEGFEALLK

For the molecule `Cc1cc(Nc2nc(N[C@@H]3C[C@H]4CCC[C@@H](C3)N4S(=O)(=O)c3ccccn3)nc3sccc23)n[nH]1` [Embodiment 267], the IC50 in data set [1] was found to be 0.39 nM. The IC50 in data set [2] turned out to be 0.13 nM. In data set [3], this molecule gave an IC50 of 18 nM. Further, in data set [4] (colon), the Cmax is 1270 ng/mL, the AUC(0-t) came out at 5610 ng·h/mL, the MRT worked out at 4.4 h and the Tmax stood at 5 h. For the same molecule, in data set [4] (ileum), the Cmax turned out to be 12200 ng/mL, the AUC(0-t) came out at 20700 ng·h/mL, the AUC(0-inf) is 20700 ng·h/mL and the half-life is 0.53 h. In addition, in data set [4] (ileum), the MRT came to 1.24 h and the Tmax was found to be 1 h.

In the case of `Cc1cc(Nc2nc(N[C@@H]3C[C@@H]4CN(CCC#N)C[C@@H]4C3)nc3ccsc23)n[nH]1` [Embodiment 299, 3-(cis-5-((4-((5-methyl-1H-pyrazol-3-yl)amino)thieno[3,2-d]pyrimidin-2-yl)amino)hexahydrocyclopentadieno[c]pyrrole-2(1H)-yl)propionitrile], the IC50 in data set [1] was 0.56 nM. The IC50 in data set [2] came out at 0.28 nM. In data set [3], the IC50 came out at 2.46 nM. Also, in data set [4] (plasma, blood), the Cmax is 6.01 ng/mL, the AUC(0-t) is 10.6 ng·h/mL, the AUC(0-inf) came to 17.8 ng·h/mL and the half-life is 3.76 h. Also, in data set [4] (plasma, blood), the MRT stood at 1.92 h and the Tmax was found to be 0.5 h. Further, in data set [4] (colon), the Cmax was found to be 295 ng/mL, the AUC(0-t) was 948 ng·h/mL, the MRT came to 4.94 h and the Tmax was 7 h. Further, in data set [4] (ileum), the Cmax is 531 ng/mL, the AUC(0-t) came to 1320 ng·h/mL, the AUC(0-inf) turned out to be 1350 ng·h/mL and the half-life is 0.89 h. In data set [4] (ileum), the MRT was determined as 3.37 h and the Tmax was found to be 3 h.

Turning to `Cc1cc(Nc2nc(N[C@@H]3C[C@H]4CCC[C@@H](C3)N4C(=O)c3ccncc3)nc3sccc23)n[nH]1` [Embodiment 262, ((3-exo)-3-((4-((5-methyl-1H-pyrazol-3-yl)amino)thieno[2,3-d]pyrimidin-2-yl)amino)-9-azabicyclo[3.3.1]non-9-yl)(pyridin-4-yl)methanone], the IC50 in data set [1] turned out to be 1.35 nM. In addition, the IC50 in data set [2] stood at 0.07 nM. Further, the IC50 in data set [3] came to 9.47 nM. In addition, in data set [4] (plasma, blood), the Cmax turned out to be 8.01 ng/mL, the AUC(0-t) amounted to 13.4 ng·h/mL, the MRT is 1.77 h and the time of peak concentration (Tmax) was 2 h. In data set [4] (colon), the Cmax was 1240 ng/mL, the AUC(0-t) came to 3940 ng·h/mL, the AUC(0-inf) worked out at 4520 ng·h/mL and the half-life was 1.69 h. Moreover, in data set [4] (colon), the MRT is 3.72 h and the Tmax was 3 h. Also, in data set [4] (ileum), the Cmax amounted to 22300 ng/mL, the AUC(0-t) is 40200 ng·h/mL, the AUC(0-inf) turned out to be 40300 ng·h/mL and the half-life was 0.49 h. Besides, in data set [4] (ileum), the MRT was determined as 1.34 h and the Tmax amounted to 1 h.

`Cc1cc(Nc2nc(N[C@@H]3C[C@H]4CC[C@@H](C3)N4C(=O)CN3CCOCC3)nc3sccc23)n[nH]1` [Embodiment 244, 1-((3-exo)-3-((4-((5-methyl-1H-pyrazol-3-yl)amino)thieno[2,3-d]pyrimidin-2-yl)amino)-8-azabicyclo[3.2.1]oct-8-yl)-2-morpholinoethane-1-one]: the IC50 in data set [1] came to 2.45 nM. Also, the IC50 in data set [2] turned out to be 1.15 nM. In data set [3], this molecule yielded an IC50 of 3.79 nM. Moreover, in data set [4] (plasma, blood), the Cmax was 12 ng/mL, the AUC(0-t) is 18 ng·h/mL, the MRT worked out at 2.12 h and the Tmax came out at 3 h. Moreover, in data set [4] (colon), the Cmax is 1190 ng/mL, the AUC(0-t) is 4900 ng·h/mL, the MRT is 4.38 h and the Tmax was determined as 7 h. In data set [4] (ileum), the Cmax amounted to 9010 ng/mL, the AUC(0-t) was found to be 22600 ng·h/mL, the AUC(0-inf) came out at 22600 ng·h/mL and the half-life is 0.66 h. In data set [4] (ileum), the MRT was 1.83 h and the time to peak (Tmax) was found to be 1 h.

Consider `Cc1cc(Nc2nc(N[C@@H]3C[C@H]4CC[C@@H](C3)N4CCC#N)nc3c2cnn3C)n[nH]1` [Embodiment 295, 3-((3-exo)-3-((1-methyl-4-((5-methyl-1H-pyrazol-3-yl)amino)-1H-pyrazolo[3,4-d]pyrimidin-6-yl)amino)-8-azabicyclo[3.2.1]oct-8-yl)propionitrile], for which the IC50 in data set [1] was 10.8 nM; in data set [2], 0.3 nM; in data set [3] it was 3.63 nM. Moreover, the Cmax in data set [4] (plasma, blood) stood at 6.54 ng/mL; in data set [4] (colon), 1030 ng/mL; in data set [4] (ileum), 4300 ng/mL. Besides, the AUC(0-t) in data set [4] (plasma, blood) came to 10.4 ng·h/mL; in data set [4] (colon) it was 3390 ng·h/mL; in data set [4] (ileum), 10700 ng·h/mL. Further, the MRT came to 1.77 h in data set [4] (plasma, blood); 3.82 h in data set [4] (colon); 2.69 h in data set [4] (ileum). Also, the Tmax in data set [4] (plasma, blood) came out at 2 h; in data set [4] (colon), 3 h; in data set [4] (ileum), 3 h.

In general, IC50 refers to the point on the concentration scale where inhibition reaches its midpoint. What is called MRT is the average time that molecules of a dose stay in the body. In general, Tmax refers to the time at which the peak concentration occurs.
